Measured values from ChEMBL document CHEMBL1649222, “In vitro antibacterial activity of acyl-lysyl oligomers against Helicobacter pylori” (Antimicrob Agents Chemother, 2009).
≈ marks a conversion by molar mass, not a printed value. Calls of active or inactive are those of the source. The calls are words filed in the database; no cut-off is given here. Non-standard residues stand in square brackets, D forms with d. Residues, ends and D or L forms follow the SMILES beside them. *: point of attachment. Lauroyl = CCCCCCCCCCCC(=O)*; 12Ado = NCCCCCCCCCCCC(=O)O

Key:
[1] = Toxicity in horse erythrocytes assessed as hemolytic activity at 80 uM; type: cell-based, Equus caballus; settings: erythrocyte
Helicobacter pylori [2] = assay: Bactericidal activity against Helicobacter pylori G27 preincubated at 60 degC for 1 hr; type: functional
Helicobacter pylori [3] = assay: Bactericidal activity against Helicobacter pylori G27 preincubated at 50 degC for 1 hr; type: functional
Helicobacter pylori [4] = assay: Bactericidal activity against Helicobacter pylori G27 preincubated at 37 degC for 1 hr; type: functional
[5] = Antimicrobial activity against Helicobacter pylori 26695; type: functional
Helicobacter pylori [6] = assay: Bactericidal activity against Helicobacter pylori G27 preincubated at 55 degC for 1 hr; type: functional
Helicobacter pylori [7] = assay: Antimicrobial activity against Helicobacter pylori SS1; type: functional
Helicobacter pylori [8] = assay: Antimicrobial activity against Helicobacter pylori 7.13 at MBC by time-kill analysis; type: functional
Helicobacter pylori [9] = assay: Bactericidal activity against Helicobacter pylori G27 at pH 6.9; type: functional
[10] = Toxicity in horse erythrocytes assessed as hemolytic activity at 0.625 to 40 uM; type: cell-based, Equus caballus; settings: erythrocyte
Helicobacter pylori [11] = assay: Antimicrobial activity against Helicobacter pylori G27 at 2 times MBC by time-kill analysis; type: functional
Helicobacter pylori [12] = assay: Bactericidal activity against Helicobacter pylori G27 at pH 4.5; type: functional
Helicobacter pylori [13] = assay: Antimicrobial activity against Helicobacter pylori 7.13; type: functional
Helicobacter pylori [14] = assay: Antimicrobial activity against Helicobacter pylori HPAG1; type: functional
Helicobacter pylori [15] = assay: Antimicrobial activity against Helicobacter pylori J99 at 2 times MBC by time-kill analysis; type: functional
Helicobacter pylori [16] = assay: Antimicrobial activity against Helicobacter pylori G27 at MBC by time-kill analysis; type: functional
Helicobacter pylori [17] = assay: Antimicrobial activity against Helicobacter pylori J99; type: functional
Helicobacter pylori [18] = assay: Bactericidal activity against Helicobacter pylori G27 preincubated at 4 degC for 1 hr; type: functional
Helicobacter pylori [19] = assay: Bactericidal activity against Helicobacter pylori J99 at 40 uM after 10 hrs; type: functional
Helicobacter pylori [20] = assay: Bactericidal activity against Helicobacter pylori 7.13 at 40 uM after 10 hrs; type: functional, organism-based
Helicobacter pylori [21] = assay: Bactericidal activity against Helicobacter pylori G27 preincubated at 95 degC for 1 hr; type: functional
Helicobacter pylori [22] = assay: Antimicrobial activity against Helicobacter pylori J99 at MBC by time-kill analysis; type: functional
Helicobacter pylori [23] = assay: Antimicrobial activity against Helicobacter pylori G27; type: functional
Helicobacter pylori [24] = assay: Antimicrobial activity against Helicobacter pylori 7.13 at 2 times MBC by time-kill analysis; type: functional
Helicobacter pylori [25] = assay: Bactericidal activity against Helicobacter pylori G27 at 40 uM after 10 hrs; type: functional
Helicobacter pylori [26] = assay: Bactericidal activity against Helicobacter pylori G27 preincubated at 42 degC for 1 hr; type: functional

CCCCCCCCCCCC(=O)N[C@@H](CCCCN)C(=O)N[C@@H](CCCCN)C(=O)NCCCCCCCCCCCC(=O)N[C@@H](CCCCN)C(=O)N[C@@H](CCCCN)C(=O)NCCCCCCCCCCCC(=O)N[C@@H](CCCCN)C(N)=O (Lauroyl-KK[12Ado]KK[12Ado]K-NH2)
Activity [1]: Toxic
Activity (Helicobacter pylori [2]): Active
Activity (Helicobacter pylori [3]): Active
Activity (Helicobacter pylori [4]): Active
MBC [5]: 70 µM (≈ 86.4 µg/mL)
MIC [5]: 25 µM (≈ 30.9 µg/mL)
Activity (Helicobacter pylori [6]): Active
MBC (Helicobacter pylori [7]): 45 µM (≈ 55.6 µg/mL)
MIC (Helicobacter pylori [7]): 25.5 µM (≈ 31.5 µg/mL)
Time (Helicobacter pylori [8]): 6.1 h
Activity (Helicobacter pylori [9]): Active
Activity [10]: Non-toxic
Time (Helicobacter pylori [11]): 2.7 h
Activity (Helicobacter pylori [12]): inactive
MBC (Helicobacter pylori [13]): 14.5 µM (≈ 17.9 µg/mL)
MIC (Helicobacter pylori [13]): < 9 µM
MBC (Helicobacter pylori [14]): 40 µM (≈ 49.4 µg/mL)
MIC (Helicobacter pylori [14]): 10.5 µM (≈ 13 µg/mL)
Time (Helicobacter pylori [15]): 1.8 h
Time (Helicobacter pylori [16]): 6.1 h
MBC (Helicobacter pylori [17]): 20 µM (≈ 24.7 µg/mL)
MIC (Helicobacter pylori [17]): 10.5 µM (≈ 13 µg/mL)
Activity (Helicobacter pylori [18]): Active
Activity (Helicobacter pylori [19]): Active
Activity (Helicobacter pylori [20]): Active
Activity (Helicobacter pylori [21]): Active
Time (Helicobacter pylori [22]): 3.8 h
MBC (Helicobacter pylori [23]): 15 µM (≈ 18.5 µg/mL)
MIC (Helicobacter pylori [23]): 6.5 µM (≈ 8.03 µg/mL)
Time (Helicobacter pylori [24]): 3.5 h
Activity (Helicobacter pylori [25]): Active
Activity (Helicobacter pylori [26]): Active

CCCCCCCCCCCC(=O)N[C@@H](CCCCN)C(=O)NCCCCCCCC(=O)N[C@@H](CCCCN)C(=O)NCCCCCCCC(=O)N[C@@H](CCCCN)C(=O)NCCCCCCCC(=O)N[C@@H](CCCCN)C(=O)NCCCCCCCC(=O)N[C@@H](CCCCN)C(=O)NCCCCCCCC(=O)N[C@@H](CCCCN)C(N)=O
MBC (Helicobacter pylori [23]): > 100 µM
MIC (Helicobacter pylori [23]): 25 µM (≈ 41.9 µg/mL)

CCCCCCCCCCCC(=O)N[C@@H](CCCCN)C(=O)NCCCCCCCC(=O)N[C@@H](CCCCN)C(=O)NCCCCCCCC(=O)N[C@@H](CCCCN)C(=O)NCCCCCCCC(=O)N[C@@H](CCCCN)C(=O)NCCCCCCCC(=O)N[C@@H](CCCCN)C(=O)NCCCCCCCC(=O)N[C@@H](CCCCN)C(=O)NCCCCCCCC(=O)N[C@@H](CCCCN)C(=O)NCCCCCCCC(=O)N[C@@H](CCCCN)C(N)=O
MBC (Helicobacter pylori [23]): > 100 µM
MIC (Helicobacter pylori [23]): 25 µM (≈ 55.3 µg/mL)
